Earlier results on three molecules are cited in US20160067252A1, “TRANSDERMAL DELIVERY OF SILDENAFIL AND OTHER PHOSPHODIESTERASE TYPE 5 INHIBITORS” (STRATEGIC SCIENCE & TECHNOLOGIES, LLC, priority 2013, published 2016).

SMILES strings stand for the structures.

Usually pKa stands for the negative logarithm of the acid dissociation constant. `CCCOc1ccc(S(=O)(=O)N2CCN(CCO)CC2)cc1-c1nc2c(CCC)cn(CC)c2c(=O)[nH]1` [mirodenafil]: the pKa is 6.0.
On to `CN1CC(=O)N2[C@H](c3ccc4c(c3)OCO4)c3[nH]c4ccccc4c3C[C@@H]2C1=O` [tadalafil], for which the pKa is recorded as 18.
As to `CCCOc1ccc(S(=O)(=O)NCCC2CCCN2C)cc1-c1nc2c(CCC)nn(C)c2c(=O)[nH]1` (stereo not drawn) [udenafil], the pKa was 10.53.
